Three compounds from ChEMBL document CHEMBL1150095, “Antitumor activity and stereochemistry of acetylenic alcohols from the sponge Cribrochalina vasculum” (1995) can be followed below.

Calls of active or inactive are those of the source. The calls are words filed in the database; no cut-off is given here.

For experiment [1], the system named is NCI-H522. As to the kind of experiment: Antitumor activity against human NCI-H522 cells. The format is functional.
Experiment [2] deals with IGROV-1. In words: Antitumor activity against human IGROV1 cells. Format: functional.

In the case of `C#C[C@@H](O)/C=C/CCCCCCCCCCCCCCCC`, the outcome in experiment [1] and in experiment [2] was Active.

As to `C#C[C@@H](O)/C=C/CCCCCCCCC(C)CCCCCCCC` (stereo partly specified), the outcome in experiment [1] and in experiment [2] was Active.

Take `C#C[C@@H](O)/C=C/CCCCCCCCCCC(C)CCCC` (stereo partly specified): the outcome in experiment [1] and in experiment [2] was Active.
